Data taken from PubChem BioAssay AID379.

Biological target: Adenylate kinase isoenzyme 1 (Homo sapiens) (UniProt P00568)
Assay: AK1 binders by thermal shift, biophysical, DSF, SYPRO orange (AID 379)
Details: purified AK1, DSF SYPRO orange thermal shift; at 5 µM; protein 1 µM; buffer 10 mM HEPES; hits give high values

Chain of Adenylate kinase isoenzyme 1 (Homo sapiens) (P00568 whole entry, looked up): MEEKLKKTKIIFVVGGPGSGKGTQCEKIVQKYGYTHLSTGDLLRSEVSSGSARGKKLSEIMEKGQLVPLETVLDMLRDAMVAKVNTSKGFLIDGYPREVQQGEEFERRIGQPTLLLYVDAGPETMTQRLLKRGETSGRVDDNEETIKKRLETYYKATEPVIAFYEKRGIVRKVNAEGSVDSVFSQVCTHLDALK

Nc1ncnc2c1ncn2[C@@H]1O[C@H](COP(=O)(O)OP(=O)(O)OP(=O)(O)OP(=O)(O)OP(=O)(O)OC[C@H]2O[C@@H](n3cnc4c(N)ncnc43)[C@H](O)[C@@H]2O)[C@@H](O)[C@H]1O gave a Tm shift of 15.4 Celsius.
